One block for each compound: values may come before it.
Columns and labels:
Assay in all cases: radiometric filter-binding kinase assay
[1] = system: AKT1 (human), P31749 [S473D]
AURKA (human) = AURKA (human) (UniProt O14965)
BRSK1 (human) = BRSK1 (human) (UniProt Q8TDC3)
BRSK2 (human) = BRSK2 (human) (UniProt Q8IWQ3)
BTK (human) = BTK (human) (UniProt Q06187)
CSK (human) = CSK (human) (UniProt P41240)
CSNK1D (human) = CSNK1D (human) (UniProt P48730)
EEF2K (human) = EEF2K (human) (UniProt O00418)
EPHA4 (human) = EPHA4 (human) (UniProt P54764)
ERBB4 (human) = ERBB4 (human) (UniProt Q15303)
FGFR1 (human) = FGFR1 (human) (UniProt P11362)
GSK3B (human) = GSK3B (human) (UniProt P49841)
HIPK1 (human) = HIPK1 (human) (UniProt Q86Z02)
HIPK3 (human) = HIPK3 (human) (UniProt Q9H422)
IKBKB (human) = IKBKB (human) (UniProt O14920)
MAP2K2 (human) = MAP2K2 (human) (UniProt P36507)
MAP2K6 (human) = MAP2K6 (human) (UniProt P52564)
MAP3K1 (human) = MAP3K1 (human) (UniProt Q13233)
MAP3K5 (human) = MAP3K5 (human) (UniProt Q99683)
MAPK1 (human) = MAPK1 (human) (UniProt P28482)
MAPK15 (human) = MAPK15 (human) (UniProt Q8TD08)
MAPK3 (human) = MAPK3 (human) (UniProt P27361)
MAPK8 (human) = MAPK8 (human) (UniProt P45983)
MAPK9 (human) = MAPK9 (human) (UniProt P45984)
MAPKAPK3 (human) = MAPKAPK3 (human) (UniProt Q16644)
MKNK2 (human) = MKNK2 (human) (UniProt Q9HBH9)
NEK6 (human) = NEK6 (human) (UniProt Q9HC98)
[2] = system: PAK2 (human), Q13177 [T402E]
PAK7 (human) = PAK7 (human) (UniProt Q9P286)
PLK1 (human) = PLK1 (human) (UniProt P53350)
RPS6KA3 KD1 KD2 (human) = RPS6KA3 KD1 KD2 (human) (UniProt P51812)
RPS6KA5 KD1 KD2 (human) = RPS6KA5 KD1 KD2 (human) (UniProt O75582)
SRPK1 (human) = SRPK1 (human) (UniProt Q96SB4)
[3] = biological target: STK11 CAB39 STRADA (human) (UniProt Q9Y376+Q7RTN6+Q15831)
TBK1 (human) = TBK1 (human) (UniProt Q9UHD2)

Chain of ERBB4 (human) (Q15303 whole entry, looked up): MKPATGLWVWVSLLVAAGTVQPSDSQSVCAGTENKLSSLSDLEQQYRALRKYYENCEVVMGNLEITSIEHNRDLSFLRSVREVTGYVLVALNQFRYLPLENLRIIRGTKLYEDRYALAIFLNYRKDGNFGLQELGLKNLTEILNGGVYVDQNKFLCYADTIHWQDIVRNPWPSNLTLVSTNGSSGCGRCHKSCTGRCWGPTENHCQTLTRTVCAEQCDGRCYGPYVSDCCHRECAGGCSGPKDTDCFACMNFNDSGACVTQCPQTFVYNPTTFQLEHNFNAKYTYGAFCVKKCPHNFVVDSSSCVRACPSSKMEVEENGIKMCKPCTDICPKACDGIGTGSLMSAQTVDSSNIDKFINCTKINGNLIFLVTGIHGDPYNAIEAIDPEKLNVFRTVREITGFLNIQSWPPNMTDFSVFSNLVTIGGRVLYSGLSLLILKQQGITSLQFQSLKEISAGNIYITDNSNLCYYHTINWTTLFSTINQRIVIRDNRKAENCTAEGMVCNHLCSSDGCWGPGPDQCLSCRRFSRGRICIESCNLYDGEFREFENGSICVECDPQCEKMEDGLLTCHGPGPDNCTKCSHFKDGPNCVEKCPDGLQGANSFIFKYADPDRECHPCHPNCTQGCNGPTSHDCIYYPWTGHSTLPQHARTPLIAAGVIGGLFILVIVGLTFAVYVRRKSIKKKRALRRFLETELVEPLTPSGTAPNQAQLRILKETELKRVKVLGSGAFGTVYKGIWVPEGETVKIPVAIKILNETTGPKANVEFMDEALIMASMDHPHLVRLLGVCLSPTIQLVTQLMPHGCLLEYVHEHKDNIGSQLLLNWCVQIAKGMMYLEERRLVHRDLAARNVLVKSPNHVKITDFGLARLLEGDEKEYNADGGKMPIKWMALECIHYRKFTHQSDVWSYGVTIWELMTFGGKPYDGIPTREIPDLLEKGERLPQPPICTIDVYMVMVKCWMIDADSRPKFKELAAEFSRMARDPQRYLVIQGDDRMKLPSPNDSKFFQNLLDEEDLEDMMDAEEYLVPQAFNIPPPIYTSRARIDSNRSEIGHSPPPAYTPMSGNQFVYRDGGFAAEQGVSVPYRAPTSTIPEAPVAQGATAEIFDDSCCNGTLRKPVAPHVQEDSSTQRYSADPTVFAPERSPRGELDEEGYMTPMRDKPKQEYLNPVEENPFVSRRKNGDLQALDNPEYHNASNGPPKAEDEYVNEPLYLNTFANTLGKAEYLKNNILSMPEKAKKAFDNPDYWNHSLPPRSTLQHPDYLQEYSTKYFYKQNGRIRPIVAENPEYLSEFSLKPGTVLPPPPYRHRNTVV
Chain of MAP3K5 (human) (Q99683 whole entry, looked up): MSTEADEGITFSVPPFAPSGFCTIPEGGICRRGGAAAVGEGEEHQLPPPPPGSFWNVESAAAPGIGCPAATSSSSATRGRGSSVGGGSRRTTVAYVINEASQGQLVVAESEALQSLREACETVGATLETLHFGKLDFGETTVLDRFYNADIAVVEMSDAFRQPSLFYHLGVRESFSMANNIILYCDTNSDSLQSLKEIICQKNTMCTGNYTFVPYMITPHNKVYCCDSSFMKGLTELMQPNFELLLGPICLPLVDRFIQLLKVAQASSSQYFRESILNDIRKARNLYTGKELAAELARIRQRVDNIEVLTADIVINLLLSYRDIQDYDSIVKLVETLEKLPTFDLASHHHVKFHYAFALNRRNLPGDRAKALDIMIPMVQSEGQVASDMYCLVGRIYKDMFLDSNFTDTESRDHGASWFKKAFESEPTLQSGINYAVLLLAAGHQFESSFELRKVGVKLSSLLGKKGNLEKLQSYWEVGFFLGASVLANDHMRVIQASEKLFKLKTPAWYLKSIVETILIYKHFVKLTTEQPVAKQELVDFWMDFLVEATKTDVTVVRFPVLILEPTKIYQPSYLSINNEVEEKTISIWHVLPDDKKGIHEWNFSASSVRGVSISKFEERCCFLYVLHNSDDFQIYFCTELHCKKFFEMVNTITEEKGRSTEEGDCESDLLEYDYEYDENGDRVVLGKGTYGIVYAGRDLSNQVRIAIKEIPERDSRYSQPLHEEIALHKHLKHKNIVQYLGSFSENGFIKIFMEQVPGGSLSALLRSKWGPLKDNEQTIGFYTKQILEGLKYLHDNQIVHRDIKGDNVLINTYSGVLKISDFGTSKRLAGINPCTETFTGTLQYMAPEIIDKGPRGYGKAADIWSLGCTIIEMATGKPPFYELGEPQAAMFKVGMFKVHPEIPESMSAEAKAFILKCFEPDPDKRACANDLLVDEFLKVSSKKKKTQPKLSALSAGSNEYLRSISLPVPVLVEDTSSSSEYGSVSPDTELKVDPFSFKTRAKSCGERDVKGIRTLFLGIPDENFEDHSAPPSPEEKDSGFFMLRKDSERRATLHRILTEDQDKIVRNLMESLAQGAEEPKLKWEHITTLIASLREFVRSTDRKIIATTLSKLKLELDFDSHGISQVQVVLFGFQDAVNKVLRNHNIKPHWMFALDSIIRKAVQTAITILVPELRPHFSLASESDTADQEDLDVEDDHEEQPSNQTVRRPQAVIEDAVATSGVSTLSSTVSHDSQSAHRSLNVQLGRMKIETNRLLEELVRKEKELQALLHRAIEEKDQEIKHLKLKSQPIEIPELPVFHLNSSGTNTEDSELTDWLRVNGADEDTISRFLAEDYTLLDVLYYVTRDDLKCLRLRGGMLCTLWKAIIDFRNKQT
Chain of BRSK2 (human) (Q8IWQ3 whole entry, looked up): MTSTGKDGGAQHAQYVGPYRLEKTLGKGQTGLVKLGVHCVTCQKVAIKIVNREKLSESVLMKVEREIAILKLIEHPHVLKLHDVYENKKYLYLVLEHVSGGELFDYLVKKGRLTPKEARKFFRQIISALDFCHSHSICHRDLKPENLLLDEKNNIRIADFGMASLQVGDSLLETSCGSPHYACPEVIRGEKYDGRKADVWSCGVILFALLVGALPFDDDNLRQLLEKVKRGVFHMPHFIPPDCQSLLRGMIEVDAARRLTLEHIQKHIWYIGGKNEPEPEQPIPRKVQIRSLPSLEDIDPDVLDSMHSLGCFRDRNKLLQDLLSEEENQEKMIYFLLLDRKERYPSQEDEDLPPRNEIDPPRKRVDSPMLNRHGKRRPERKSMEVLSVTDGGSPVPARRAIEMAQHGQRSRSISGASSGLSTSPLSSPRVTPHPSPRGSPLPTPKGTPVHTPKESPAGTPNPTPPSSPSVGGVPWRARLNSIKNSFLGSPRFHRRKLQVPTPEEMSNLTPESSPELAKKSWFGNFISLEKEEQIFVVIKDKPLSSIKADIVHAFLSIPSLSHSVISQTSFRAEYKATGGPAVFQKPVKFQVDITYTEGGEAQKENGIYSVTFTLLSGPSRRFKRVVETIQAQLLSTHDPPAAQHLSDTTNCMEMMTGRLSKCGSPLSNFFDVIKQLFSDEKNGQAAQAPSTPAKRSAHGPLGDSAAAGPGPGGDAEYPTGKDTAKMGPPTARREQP
Chain of RPS6KA3 KD1 KD2 (human) (P51812 whole entry, looked up): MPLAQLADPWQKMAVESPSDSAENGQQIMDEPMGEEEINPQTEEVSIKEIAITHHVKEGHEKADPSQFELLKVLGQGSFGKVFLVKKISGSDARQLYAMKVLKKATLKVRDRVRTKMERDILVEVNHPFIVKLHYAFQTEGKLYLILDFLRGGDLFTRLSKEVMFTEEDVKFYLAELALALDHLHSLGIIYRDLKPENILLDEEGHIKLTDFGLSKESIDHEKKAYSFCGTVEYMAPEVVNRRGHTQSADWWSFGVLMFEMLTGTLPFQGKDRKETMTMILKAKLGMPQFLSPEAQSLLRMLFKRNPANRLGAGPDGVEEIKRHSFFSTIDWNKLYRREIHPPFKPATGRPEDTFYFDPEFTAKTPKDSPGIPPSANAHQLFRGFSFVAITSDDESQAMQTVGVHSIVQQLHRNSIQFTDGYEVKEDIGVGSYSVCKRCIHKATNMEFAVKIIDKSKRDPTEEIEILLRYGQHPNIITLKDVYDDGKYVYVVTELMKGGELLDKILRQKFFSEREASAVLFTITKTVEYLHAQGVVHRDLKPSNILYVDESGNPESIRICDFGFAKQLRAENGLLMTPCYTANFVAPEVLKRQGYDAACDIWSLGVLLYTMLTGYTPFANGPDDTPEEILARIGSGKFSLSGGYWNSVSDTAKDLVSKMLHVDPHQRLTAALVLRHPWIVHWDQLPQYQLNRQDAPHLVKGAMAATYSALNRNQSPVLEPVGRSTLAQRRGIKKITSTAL
Chain of RPS6KA5 KD1 KD2 (human) (O75582 whole entry, looked up): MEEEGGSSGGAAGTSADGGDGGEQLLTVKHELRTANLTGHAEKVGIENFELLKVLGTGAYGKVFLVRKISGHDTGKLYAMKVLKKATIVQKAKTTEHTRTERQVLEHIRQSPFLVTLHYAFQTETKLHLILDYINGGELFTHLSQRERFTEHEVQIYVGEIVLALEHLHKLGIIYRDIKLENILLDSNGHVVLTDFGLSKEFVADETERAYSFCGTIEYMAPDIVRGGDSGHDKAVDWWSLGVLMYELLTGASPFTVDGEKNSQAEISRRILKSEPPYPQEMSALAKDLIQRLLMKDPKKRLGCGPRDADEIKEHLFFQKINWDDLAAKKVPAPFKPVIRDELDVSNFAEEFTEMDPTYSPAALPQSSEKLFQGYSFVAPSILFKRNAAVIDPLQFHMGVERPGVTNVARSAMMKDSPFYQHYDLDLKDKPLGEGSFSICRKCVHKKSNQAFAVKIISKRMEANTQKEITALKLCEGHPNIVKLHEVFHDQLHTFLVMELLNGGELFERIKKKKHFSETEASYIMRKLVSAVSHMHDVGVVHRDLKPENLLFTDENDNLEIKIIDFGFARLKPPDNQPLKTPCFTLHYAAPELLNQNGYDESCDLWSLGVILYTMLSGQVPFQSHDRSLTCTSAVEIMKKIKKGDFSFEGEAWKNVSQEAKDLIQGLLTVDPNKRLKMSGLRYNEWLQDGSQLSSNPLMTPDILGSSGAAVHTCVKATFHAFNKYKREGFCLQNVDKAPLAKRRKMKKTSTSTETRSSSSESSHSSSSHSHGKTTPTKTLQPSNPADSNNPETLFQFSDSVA

residual activity ([1]; compound 1.0 µM): 106% | residual activity ([1]; compound 10.0 µM): 99% | residual activity (AURKA (human); compound 1.0 µM): 95% | residual activity (AURKA (human); compound 10.0 µM): 28% | residual activity (BRSK1 (human); compound 1.0 µM): 82% | residual activity (BRSK1 (human); compound 10.0 µM): 7% | residual activity (BRSK2 (human); compound 1.0 µM): 71% | residual activity (BRSK2 (human); compound 10.0 µM): 13% | residual activity (BTK (human); compound 1.0 µM): 61% | residual activity (BTK (human); compound 10.0 µM): 32% | residual activity (CSK (human); compound 1.0 µM): 125% | residual activity (CSK (human); compound 10.0 µM): 74% | residual activity (CSNK1D (human); compound 1.0 µM): 90% | residual activity (CSNK1D (human); compound 10.0 µM): 29% | residual activity (EEF2K (human); compound 1.0 µM): 110% | residual activity (EEF2K (human); compound 10.0 µM): 109% | residual activity (EPHA4 (human); compound 1.0 µM): 117% | residual activity (EPHA4 (human); compound 10.0 µM): 74% | residual activity (ERBB4 (human); compound 1.0 µM): 109% | residual activity (ERBB4 (human); compound 10.0 µM): 44% | residual activity (FGFR1 (human); compound 1.0 µM): 27% | residual activity (FGFR1 (human); compound 10.0 µM): 14% | residual activity (GSK3B (human); compound 1.0 µM): 94% | residual activity (GSK3B (human); compound 10.0 µM): 19% | residual activity (HIPK1 (human); compound 1.0 µM): 93% | residual activity (HIPK1 (human); compound 10.0 µM): 11% | residual activity (HIPK3 (human); compound 1.0 µM): 88% | residual activity (HIPK3 (human); compound 10.0 µM): 55% | residual activity (IKBKB (human); compound 1.0 µM): 100% | residual activity (IKBKB (human); compound 10.0 µM): 16% | residual activity (MAP2K2 (human); compound 1.0 µM): 94% | residual activity (MAP2K6 (human); compound 1.0 µM): 102% | residual activity (MAP3K1 (human); compound 1.0 µM): 67% | residual activity (MAP3K1 (human); compound 10.0 µM): 74% | residual activity (MAP3K5 (human); compound 1.0 µM): 118% | residual activity (MAPK1 (human); compound 1.0 µM): 107% | residual activity (MAPK1 (human); compound 10.0 µM): 105% | residual activity (MAPK3 (human); compound 1.0 µM): 101% | residual activity (MAPK3 (human); compound 10.0 µM): 54% | residual activity (MAPK8 (human); compound 1.0 µM): 93% | residual activity (MAPK8 (human); compound 10.0 µM): 93% | residual activity (MAPK9 (human); compound 1.0 µM): 106% | residual activity (MAPK9 (human); compound 10.0 µM): 100% | residual activity (MAPKAPK3 (human); compound 1.0 µM): 92% | residual activity (MAPKAPK3 (human); compound 10.0 µM): 14% | residual activity (MKNK2 (human); compound 1.0 µM): 63% | residual activity (MKNK2 (human); compound 10.0 µM): 26% | residual activity (NEK6 (human); compound 1.0 µM): 99% | residual activity (NEK6 (human); compound 10.0 µM): 21% | residual activity ([2]; compound 1.0 µM): 96% | residual activity ([2]; compound 10.0 µM): 98% | residual activity (PAK7 (human); compound 1.0 µM): 67% | residual activity (PAK7 (human); compound 10.0 µM): 55% | residual activity (PLK1 (human); compound 1.0 µM): 107% | residual activity (PLK1 (human); compound 10.0 µM): 23% | residual activity (RPS6KA3 KD1 KD2 (human); compound 1.0 µM): 22% | residual activity (RPS6KA3 KD1 KD2 (human); compound 10.0 µM): 12% | residual activity (RPS6KA5 KD1 KD2 (human); compound 1.0 µM): 88% | residual activity (RPS6KA5 KD1 KD2 (human); compound 10.0 µM): 38% | residual activity (SRPK1 (human); compound 1.0 µM): 55% | residual activity (SRPK1 (human); compound 10.0 µM): 3% | residual activity ([3]; compound 1.0 µM): 95% | residual activity ([3]; compound 10.0 µM): 55% | residual activity (TBK1 (human); compound 1.0 µM): 54% | residual activity (TBK1 (human); compound 10.0 µM): 64%
Compound: O=c1c(O)c(-c2ccc(O)c(O)c2)oc2cc(O)c(O)c(O)c12
residual activity (MAPK15 (human); compound 1.0 µM): 89% | residual activity (MAPK15 (human); compound 10.0 µM): 65%

residual activity ([1]; compound 0.1 µM): 103% | residual activity ([1]; compound 1.0 µM): 96% | residual activity ([1]; compound 10.0 µM): 75% | residual activity (AURKA (human); compound 0.1 µM): 114% | residual activity (AURKA (human); compound 1.0 µM): 89% | residual activity (AURKA (human); compound 10.0 µM): 93% | residual activity (BRSK1 (human); compound 0.1 µM): 115% | residual activity (BRSK1 (human); compound 1.0 µM): 112% | residual activity (BRSK1 (human); compound 10.0 µM): 87% | residual activity (BRSK2 (human); compound 0.1 µM): 102% | residual activity (BRSK2 (human); compound 1.0 µM): 88% | residual activity (BRSK2 (human); compound 10.0 µM): 94% | residual activity (BTK (human); compound 0.1 µM): 87% | residual activity (BTK (human); compound 1.0 µM): 96% | residual activity (BTK (human); compound 10.0 µM): 99% | residual activity (CSK (human); compound 0.1 µM): 92% | residual activity (CSK (human); compound 1.0 µM): 91% | residual activity (CSK (human); compound 10.0 µM): 85% | residual activity (CSNK1D (human); compound 0.1 µM): 119% | residual activity (CSNK1D (human); compound 1.0 µM): 100% | residual activity (CSNK1D (human); compound 10.0 µM): 91% | residual activity (EEF2K (human); compound 0.1 µM): 101% | residual activity (EEF2K (human); compound 1.0 µM): 104% | residual activity (EEF2K (human); compound 10.0 µM): 109% | residual activity (EPHA4 (human); compound 0.1 µM): 107% | residual activity (EPHA4 (human); compound 1.0 µM): 116% | residual activity (EPHA4 (human); compound 10.0 µM): 97% | residual activity (ERBB4 (human); compound 0.1 µM): 111% | residual activity (ERBB4 (human); compound 1.0 µM): 95% | residual activity (FGFR1 (human); compound 0.1 µM): 100% | residual activity (FGFR1 (human); compound 1.0 µM): 95% | residual activity (FGFR1 (human); compound 10.0 µM): 70% | residual activity (GSK3B (human); compound 0.1 µM): 104% | residual activity (GSK3B (human); compound 1.0 µM): 85% | residual activity (GSK3B (human); compound 10.0 µM): 72% | residual activity (HIPK1 (human); compound 0.1 µM): 91% | residual activity (HIPK1 (human); compound 1.0 µM): 85% | residual activity (HIPK1 (human); compound 10.0 µM): 97% | residual activity (HIPK3 (human); compound 0.1 µM): 117% | residual activity (HIPK3 (human); compound 1.0 µM): 100% | residual activity (HIPK3 (human); compound 10.0 µM): 100% | residual activity (IKBKB (human); compound 0.1 µM): 112% | residual activity (IKBKB (human); compound 1.0 µM): 98% | residual activity (IKBKB (human); compound 10.0 µM): 89% | residual activity (MAP2K2 (human); compound 0.1 µM): 103% | residual activity (MAP2K2 (human); compound 1.0 µM): 99% | residual activity (MAP2K2 (human); compound 10.0 µM): 90% | residual activity (MAP2K6 (human); compound 0.1 µM): 109% | residual activity (MAP2K6 (human); compound 1.0 µM): 98% | residual activity (MAP2K6 (human); compound 10.0 µM): 104% | residual activity (MAP3K1 (human); compound 0.1 µM): 114% | residual activity (MAP3K1 (human); compound 1.0 µM): 101% | residual activity (MAP3K1 (human); compound 10.0 µM): 83% | residual activity (MAP3K5 (human); compound 0.1 µM): 97% | residual activity (MAP3K5 (human); compound 1.0 µM): 87% | residual activity (MAP3K5 (human); compound 10.0 µM): 90% | residual activity (MAPK1 (human); compound 0.1 µM): 104% | residual activity (MAPK1 (human); compound 1.0 µM): 96% | residual activity (MAPK1 (human); compound 10.0 µM): 75% | residual activity (MAPK3 (human); compound 0.1 µM): 108% | residual activity (MAPK3 (human); compound 1.0 µM): 87% | residual activity (MAPK3 (human); compound 10.0 µM): 93% | residual activity (MAPK8 (human); compound 0.1 µM): 100% | residual activity (MAPK8 (human); compound 1.0 µM): 100% | residual activity (MAPK8 (human); compound 10.0 µM): 87% | residual activity (MAPK9 (human); compound 0.1 µM): 83% | residual activity (MAPK9 (human); compound 1.0 µM): 94% | residual activity (MAPK9 (human); compound 10.0 µM): 97% | residual activity (MAPKAPK3 (human); compound 0.1 µM): 88% | residual activity (MAPKAPK3 (human); compound 1.0 µM): 107% | residual activity (MAPKAPK3 (human); compound 10.0 µM): 94% | residual activity (MKNK2 (human); compound 0.1 µM): 90% | residual activity (MKNK2 (human); compound 1.0 µM): 100% | residual activity (MKNK2 (human); compound 10.0 µM): 92% | residual activity (NEK6 (human); compound 0.1 µM): 106% | residual activity (NEK6 (human); compound 1.0 µM): 98% | residual activity (NEK6 (human); compound 10.0 µM): 90% | residual activity ([2]; compound 0.1 µM): 98% | residual activity ([2]; compound 1.0 µM): 94% | residual activity ([2]; compound 10.0 µM): 103% | residual activity (PAK7 (human); compound 0.1 µM): 101% | residual activity (PAK7 (human); compound 1.0 µM): 96% | residual activity (PAK7 (human); compound 10.0 µM): 75% | residual activity (PLK1 (human); compound 1.0 µM): 105% | residual activity (PLK1 (human); compound 10.0 µM): 94% | residual activity (RPS6KA3 KD1 KD2 (human); compound 0.1 µM): 91% | residual activity (RPS6KA3 KD1 KD2 (human); compound 1.0 µM): 90% | residual activity (RPS6KA3 KD1 KD2 (human); compound 10.0 µM): 81% | residual activity (RPS6KA5 KD1 KD2 (human); compound 0.1 µM): 84% | residual activity (RPS6KA5 KD1 KD2 (human); compound 1.0 µM): 90% | residual activity (RPS6KA5 KD1 KD2 (human); compound 10.0 µM): 76% | residual activity (SRPK1 (human); compound 0.1 µM): 107% | residual activity (SRPK1 (human); compound 1.0 µM): 106% | residual activity (SRPK1 (human); compound 10.0 µM): 116% | residual activity ([3]; compound 0.1 µM): 102% | residual activity ([3]; compound 1.0 µM): 85% | residual activity ([3]; compound 10.0 µM): 86% | residual activity (TBK1 (human); compound 0.1 µM): 88% | residual activity (TBK1 (human); compound 1.0 µM): 102% | residual activity (TBK1 (human); compound 10.0 µM): 89%
Compound: NC1(c2ccc(-c3nc4ccn5c(=O)[nH]nc5c4cc3-c3ccccc3)cc2)CCC1
residual activity (MAPK15 (human); compound 0.1 µM): 106% | residual activity (MAPK15 (human); compound 1.0 µM): 89% | residual activity (MAPK15 (human); compound 10.0 µM): 93%
